# Data from patent US20260130933A1, “PHARMACEUTICAL COMPOSITION FOR PREVENTION OR TREATMENT OF NEPHROPATHY AND/OR DIABETES MELLITUS, COMPRISING ENAVOGLIFLOZIN” (DAEWOONG PHARMACEUTICAL CO., LTD., priority 2022, published 2026).
# Experiment: Example 3: phase 3 trial, enavogliflozin 0.3 mg vs dapagliflozin 10 mg once a day for 24 weeks added to metformin and gemigliptin in patients with type 2 diabetes (same endpoints, rescue drug)
# Assay type: in vivo, human
# Procedure: 1) when Metformin (≥1,000 mg/Day) was Administered at a Constant Dose for at Least 8 Weeks Prior to Pre-Visit (Pre-Screening) • Metformin (≥1,000 mg/day) and gemigliptin (50 mg/day) were co-administered during the 8-week stabilization period. […] 4) when Metformin (≥1,000 mg/Day) and Gemigliptin (50 mg/Day) were Co-Administered at Constant Doses for at Least 8 Weeks Prior to Pre-Visit (Prescreening) • Without a separate stabilization period, Pre-visit (pre-screening) was Visit 1 (screening).
# Subjects who met the inclusion/exclusion criteria continued to receive metformin and gemigliptin while receiving a placebo of the clinical trial drug in a single-blind (subject-blinded) state for a 2-week run-in period.
# Here, the randomized subjects were stratified according to the administration therapy (co-administration with two or less agents (one or two agents) or three or more agents) of a conventional hypoglycemic agent (before washout of another hypoglycemic agent) within 24 weeks prior to obtaining written informed consent and by an HbA1c value (<8% or ≥8%) at Visit 1 (screening) measured in the central laboratory.
# The randomized subjects were administered two tablets of the clinical trial drug corresponding to each administration group once a day, and then visited the institution at weeks 6, 12, 18, and 24 during the 24-week administration period to conduct efficacy and safety assessments. In addition, during the clinical trial period, they were instructed to exercise regularly and control their diet without changing their daily life patterns.
# • 1) Change in HbA1c at week 24 after administration of clinical trial drug compared to Visit 2 (randomization)
# • 1) Change in HbA1c at each time point of weeks 6, 12, and 18 after administration of clinical trial drug compared to Visit 2 (randomization) • 2) Change in FPG at each time point of weeks 6, 12, 18, and 24 after administration of clinical trial drug compared to Visit 2 (randomization) • 3) Proportion of subjects achieving HbA1c<7% at each time point of weeks 6, 12, 18, and 24 after administration of clinical trial drug • 4) Proportion of subjects achieving HbA1c<6.5% at each time point of weeks 6, 12, 18, and 24 after administration of clinical trial drug • 5) Proportion of subjects achieving therapeutic response (HbA1c change (HbA1c at Visit 2—HbA1c at each evaluation time point)>0.5% or HbA1c<7% at each evaluation time point compared to Visit 2 (randomization)) at each time point of weeks 6, 12, 18, and 24 after administration of clinical trial drug • 6) Proportion of subjects achieving therapeutic response (HbA1c change (HbA1c at Visit 2—HbA1c at each evaluation time point)>0.7% or HbA1c<7% at each evaluation time point compared to Visit 2 (randomization)) at each time point of weeks 6, 12, 18, and 24 after administration of clinical trial drug • 7) Proportion of subjects achieving therapeutic response (HbA1c change (HbA1c at Visit 2—HbA1c at each evaluation time point)>1% or HbA1c<7% at each evaluation time point compared to Visit 2 (randomization)) at each time point of weeks 6, 12, 18, and 24 after administration of clinical trial drug
# [1] = week 6, per-protocol set, enavogliflozin 0.3 mg, dapagliflozin 10 mg
# [2] = week 12, modified per-protocol set 1, enavogliflozin 0.3 mg, dapagliflozin 10 mg
# [3] = week 12, modified per-protocol set 2
# [4] = week 12, modified per-protocol set 2, enavogliflozin 0.3 mg, dapagliflozin 10 mg
smiles,measurement,setting,value
"CCOc1ccc(Cc2cc([C@@H]3O[C@H](CO)[C@@H](O)[C@H](O)[C@H]3O)ccc2Cl)cc1 [Dapagliflozin, reference compound]","HbA1c, Median",[1],6.96%
same,"Subjects achieving HbA1c target of <6.5%, (%)",[1],15.57%
same,"Subjects achieving HbA1c target of <7%, %",[1],51.64%
same,"body weight, Median",[1],63.90 kg
same,"Subjects achieving therapeutic glycemic response 1, %","week 6, per-protocol set, response 1 = HbA1c change >0.5% or HbA1c <7%, enavogliflozin 0.3 mg, dapagliflozin 10 mg",81.97%
same,"Subjects achieving therapeutic glycemic response 2, %","week 6, per-protocol set, response 2 = HbA1c change >0.7% or HbA1c <7%, enavogliflozin 0.3 mg, dapagliflozin 10 mg",76.23%
same,"Subjects achieving therapeutic glycemic response 3, %","week 6, per-protocol set, response 3 = HbA1c change >1% or HbA1c <7%, enavogliflozin 0.3 mg, dapagliflozin 10 mg",63.93%
same,"FPG change from baseline, LS mean (SE)",week 12,−24.42(1.50) mg/dL
same,"HDL-C change from baseline, LS mean (SE)",week 12,2.84(0.60) mg/dL
same,"HOMA-β change from baseline, LS mean (SE)",week 12,5.23(1.90)
same,"HbA1c change from baseline, LS mean (SE)",week 12,−0.83(0.04) % p
same,"LDL-C change from baseline, LS mean (SE)",week 12,2.71(1.75) mg/dL
same,"UACR change from baseline, LS mean (SE)",week 12,−11.76(4.47) g/kg
same,"UGCR change from baseline, LS mean (SE)",week 12,44.84(2.02) mg/mg
same,"adiponectin change from baseline, LS mean (SE)",week 12,0.70(0.33) μg/mL
same,"body weight change from baseline, LS mean (SE)",week 12,−2.71(0.19) kg
same,"diastolic blood pressure change from baseline, LS mean (SE)",week 12,−2.26(0.66) mmHg
same,"fasting C-peptide change from baseline, LS mean (SE)",week 12,−0.07(0.02) ng/ml
same,"leptin change from baseline, LS mean (SE)",week 12,−1.69(0.47) ng/ml
same,"systolic blood pressure change from baseline, LS mean (SE)",week 12,−5.06(0.85) mmHg
same,"total cholesterol change from baseline, LS mean (SE)",week 12,5.40(1.98) mg/dL
same,"triglyceride change from baseline, LS mean (SE)",week 12,−12.02(5.12) mg/dL
same,"Change from baseline in HDL-C, ANCOVA LS mean",[2],2.84 mg/dL
same,"Change from baseline in HDL-C, Mean",[2],2.65 mg/dL
same,"Change from baseline in HDL-C, Median",[2],2.00 mg/dL
same,"Change from baseline in LDL-C, ANCOVA LS mean",[2],2.71 mg/dL
same,"Change from baseline in LDL-C, Mean",[2],2.45 mg/dL
same,"Change from baseline in LDL-C, Median",[2],4.00 mg/dL
same,"Change from baseline in total cholesterol, ANCOVA LS mean",[2],5.40 mg/dL
same,"Change from baseline in total cholesterol, Mean",[2],4.61 mg/dL
same,"Change from baseline in total cholesterol, Median",[2],6.00 mg/dL
same,"Change from baseline in triglycerides, ANCOVA LS mean",[2],12.02 mg/dL
same,"Change from baseline in triglycerides, Mean",[2],-16.03 mg/dL
same,"Change from baseline in triglycerides, Median",[2],-6.00 mg/dL
same,"Fasting HDL-C, Mean",[2],50.08 mg/dL
same,"Fasting HDL-C, Median",[2],49.00 mg/dL
same,"Fasting LDL-C, Mean",[2],79.86 mg/dL
same,"Fasting LDL-C, Median",[2],72.50 mg/dL
same,"Fasting total cholesterol, Mean",[2],148.41 mg/dL
same,"Fasting triglycerides, Mean",[2],116.46 mg/dL
same,"Fasting triglycerides, Median",[2],104.50 mg/dL
same,"fasting Total cholesterol, Median",[2],140.50 mg/dL
same,"Change from baseline in diastolic blood pressure, ANCOVA LS mean",[3],−2.26 mmHg
same,"Change from baseline in diastolic blood pressure, Mean",[3],−1.88 mmHg
same,"Change from baseline in diastolic blood pressure, Median",[3],−1.00 mmHg
same,"Diastolic blood pressure, Mean",[3],71.99 mmHg
same,"Diastolic blood pressure, Median",[3],72.00 mmHg
same,"Change from baseline in systolic blood pressure, ANCOVA LS mean",[4],−5.06 mmHg
same,"Change from baseline in systolic blood pressure, Mean",[4],−4.43 mmHg
same,"Change from baseline in systolic blood pressure, Median",[4],−4.00 mmHg
same,"Systolic blood pressure, Mean",[4],119.51 mmHg
